This note sets out measurements from patent publication US20100311714A1, “1H-IMIDAZO[4,5-c]QUINOLINONE COMPOUNDS” (priority 2009, published 2010).

In brackets after ≈: the same amount, converted by molar mass.

A short description of series [1]: High-throughput equilibrium solubility at pH 6.8. As to conditions: pH 6.8, aqueous buffer, thermodynamic from solid; read-out: HT-Eq Sol/pH 6.8. The series is classed as physicochemical. In a few lines:
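Solubility was measured at pH 6.8 following the cited Zhou et al. (2007) procedure.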

In series [2] the test system is PKB Ser473 phosphorylation in Rat1-myr-HA-p110 alpha cells. In words: Reverse protein array, PKB Ser473 phosphorylation in Rat1-myr-HA-p110 alpha cells. The conditions noted are these: Rattus norvegicus, 0.5 h, 30 minutes compound incubation, read-out: p-PKB/IC50_alpha. The series is classed as cell-based.
For series [3], the system named is PKB Ser473 phosphorylation in Rat1-myr-HA-p110 beta cells. Kind of series: Reverse protein array, PKB Ser473 phosphorylation in Rat1-myr-HA-p110 beta cells. The conditions noted are these: Rattus norvegicus, 0.5 h, 30 minutes compound incubation, read-out: p-PKB/IC50_beta. The series is classed as cell-based.

Regarding `CNc1cc(-c2ccc3ncc4c(c3c2)n(-c2ccc(F)nc2C)c(=O)n4C)cnc1CO` [Example 7.11, 1-(6-Fluoro-2-methyl-pyridin-3-yl)-8-(6-hydroxymethyl-5-methylamino-pyridin-3-yl)-3-methyl-1,3-dihydro-imidazo[4,5-c]quinolin-2-one], the solubility thermodynamic in series [1] came out at 207 µg/mL (≈ 466 µM). For the same compound, the results for the IC50 in series [2] and in series [3] were 12.6 nM and 15.8 nM, respectively.
Taken in the same sequence, the figures for `CNc1ncc(-c2ccc3ncc4c(c3c2)n(-c2ccc(F)nc2C)c(=O)n4C)cc1F` [Example 7.12, 8-(5-Fluoro-6-methylamino-pyridin-3-yl)-1-(6-fluoro-2-methyl-pyridin-3-yl)-3-methyl-1,3-dihydro-imidazo[4,5-c]quinolin-2-one] were 3 µg/mL (≈ 6.94 µM), 6.4 nM and 13.5 nM.
Taken in the same sequence, the figures for `CNc1ncc(-c2ccc3ncc4c(c3c2)n(-c2ccc(F)nc2C)c(=O)n4C)cc1C(F)(F)F` [Example 7.13, 1-(6-Fluoro-2-methyl-pyridin-3-yl)-3-methyl-8-(6-methylamino-5-trifluoromethyl-pyridin-3-yl)-1,3-dihydro-imidazo[4,5-c]quinolin-2-one] were 20 µg/mL (≈ 41.5 µM), below 4.57 nM and 7.6 nM.
Taken in the same sequence, the figures for `CNC(=O)c1cc(-c2ccc3ncc4c(c3c2)n(-c2ccc(F)nc2C)c(=O)n4C)cnc1N` [Example 7.14, 2-Amino-5-[1-(6-fluoro-2-methyl-pyridin-3-yl)-3-methyl-2-oxo-2,3-dihydro-1H-imidazo[4,5-c]quinolin-8-yl]-N-methyl-nicotinamide] were 3 µg/mL (≈ 6.56 µM), 15.2 nM and 50.6 nM.
For `CCOCc1cc(-c2ccc3ncc4c(c3c2)n(-c2ccc(F)nc2C)c(=O)n4C)cnc1N` [Example 7.15, 8-(6-Amino-5-ethoxymethyl-pyridin-3-yl)-1-(6-fluoro-2-methyl-pyridin-3-yl)-3-methyl-1,3-dihydro-imidazo[4,5-c]quinolin-2-one], the solubility thermodynamic in series [1] was found to be 67.5 µg/mL (≈ 147 µM). In addition, the IC50 in series [2] was determined as 20.1 nM; in series [3], 50.6 nM.
The matching figures for `Cc1nc(F)ccc1-n1c(=O)n(C)c2cnc3ccc(-c4cncc(N)c4)cc3c21` [Example 7.16, 8-(5-Amino-pyridin-3-yl)-1-(6-fluoro-2-methyl-pyridin-3-yl)-3-methyl-1,3-dihydro-imidazo[4,5-c]quinolin-2-one]: 187 µg/mL (≈ 467 µM), 30.3 nM and 23.3 nM.
Taken in the same sequence, the figures for `Cc1nc(F)ccc1-n1c(=O)n(C)c2cnc3ccc(-c4cnc(N)c(CO)c4)cc3c21` [Example 7.17, 8-(6-Amino-5-hydroxymethyl-pyridin-3-yl)-1-(6-fluoro-2-methyl-pyridin-3-yl)-3-methyl-1,3-dihydro-imidazo[4,5-c]quinolin-2-one] were above 430 µg/mL, 31.1 nM and 212 nM.
Take `COCc1ncc(-c2ccc3ncc4c(c3c2)n(-c2ccc(OC)nc2OC)c(=O)n4C)cc1OC` [Example 8.12, 1-(2,6-Dimethoxy-pyridin-3-yl)-8-(5-methoxy-6-methoxymethyl-pyridin-3-yl)-3-methyl-1,3-dihydro-imidazo[4,5-c]quinolin-2-one]: the solubility thermodynamic in series [1] came out at 13 µg/mL (≈ 26.7 µM). The IC50 in series [2] amounted to 27.7 nM; in series [3] it was 81.6 nM.
The matching figures for `COc1nc(N2CCNCC2)ccc1-n1c(=O)n(C)c2cnc3ccc(-c4cnc(N(C)C)nc4)cc3c21` [Example 9.4, 8-(2-Dimethylamino-pyrimidin-5-yl)-1-(2-methoxy-6-piperazin-1-yl-pyridin-3-yl)-3-methyl-1,3-dihydro-imidazo[4,5-c]quinolin-2-one]: above 512 µg/mL, 18 nM and 19.6 nM.
Taken in the same sequence, the figures for `CCNc1cc(-c2ccc3ncc4c(c3c2)n(-c2ccc(OC)nc2C)c(=O)n4C)cnc1C` [Example 11.7, 8-(5-Ethylamino-6-methyl-pyridin-3-yl)-1-(6-methoxy-2-methyl-pyridin-3-yl)-3-methyl-1,3-dihydro-imidazo[4,5-c]quinolin-2-one] were 3 µg/mL (≈ 6.6 µM), 4.9 nM and 7.5 nM.
Take `COc1ccc(-n2c(=O)n(C)c3cnc4ccc(-c5cnc(CO)c(OC)c5)cc4c32)c(C)n1` [Example 11.8, 8-(6-Hydroxymethyl-5-methoxy-pyridin-3-yl)-1-(6-methoxy-2-methyl-pyridin-3-yl)-3-methyl-1,3-dihydro-imidazo[4,5-c]quinolin-2-one]: the solubility thermodynamic in series [1] was 26 µg/mL (≈ 56.8 µM). For the same compound, the IC50 in series [2] was found to be 7.8 nM; in series [3] it was 31.1 nM.
On to `CCNc1cc(-c2ccc3ncc4c(c3c2)n(-c2ccc(N(C)CC)nc2C)c(=O)n4C)cnc1C` [Example 12.2, 8-(5-Ethylamino-6-methyl-pyridin-3-yl)-1-[6-(ethyl-methyl-amino)-2-methyl-pyridin-3-yl]-3-methyl-1,3-dihydro-imidazo[4,5-c]quinolin-2-one], for which, in series [1], the solubility thermodynamic stood at 5 µg/mL (≈ 10.4 µM). For the same compound, the IC50 in series [2] and in series [3] was below 4.57 nM in each case.
As to `CCOc1ccc(-c2ccc3ncc4c(c3c2)n(-c2ccc(OCCOC)nc2C)c(=O)n4C)cn1` [Example 13.1, 8-(6-Ethoxy-pyridin-3-yl)-1-[6-(2-methoxy-ethoxy)-2-methyl-pyridin-3-yl]-3-methyl-1,3-dihydro-imidazo[4,5-c]quinolin-2-one], in series [1], the solubility thermodynamic was 3 µg/mL (≈ 6.18 µM). Also, the IC50 in series [2] stood at 17 nM; in series [3] it was 15.7 nM.
The matching figures for `COCCOc1ccc(-n2c(=O)n(C)c3cnc4ccc(-c5cnc(N)c(C(F)(F)F)c5)cc4c32)c(C)n1` [Example 13.2, 8-(6-Amino-5-trifluoromethyl-pyridin-3-yl)-1-[6-(2-methoxy-ethoxy)-2-methyl-pyridin-3-yl]-3-methyl-1,3-dihydro-imidazo[4,5-c]quinolin-2-one]: 27 µg/mL (≈ 51.5 µM), below 4.57 nM and 5.3 nM.
Taken in the same sequence, the figures for `CNc1ccc(-c2ccc3ncc4c(c3c2)n(-c2ccc(OCCOC)nc2C)c(=O)n4C)cn1` [Example 13.3, 1-[6-(2-Methoxy-ethoxy)-2-methyl-pyridin-3-yl]-3-methyl-8-(6-methylamino-pyridin-3-yl)-1,3-dihydro-imidazo[4,5-c]quinolin-2-one] were 10 µg/mL (≈ 21.3 µM), 5 nM and below 4.57 nM.
For the compound `CCNc1cc(-c2ccc3ncc4c(c3c2)n(-c2ccc(OCCOC)nc2C)c(=O)n4C)cnc1C` [Example 13.4, 8-(5-Ethylamino-6-methyl-pyridin-3-yl)-1-[6-(2-methoxy-ethoxy)-2-methyl-pyridin-3-yl]-3-methyl-1,3-dihydro-imidazo[4,5-c]quinolin-2-one], the solubility thermodynamic in series [1] was found to be 7 µg/mL (≈ 14 µM). In addition, the IC50 in series [2] and in series [3] was below 4.57 nM throughout.
Consider `CNc1ncc(-c2ccc3ncc4c(c3c2)n(-c2ccc(OCCOC)nc2C)c(=O)n4C)cn1` [Example 13.5, 1-[6-(2-Methoxy-ethoxy)-2-methyl-pyridin-3-yl]-3-methyl-8-(2-methylamino-pyrimidin-5-yl)-1,3-dihydro-imidazo[4,5-c]quinolin-2-one], for which the solubility thermodynamic in series [1] came to 15 µg/mL (≈ 31.8 µM). Besides, the IC50 in series [2] came out at 6.9 nM; in series [3], 11.6 nM.
With `CCOc1ccc(-c2ccc3ncc4c(c3c2)n(-c2ccc(C)nc2C)c(=O)n4C)cn1` [Example 14.2, 1-(2,6-Dimethyl-pyridin-3-yl)-8-(6-ethoxy-pyridin-3-yl)-3-methyl-1,3-dihydro-imidazo[4,5-c]quinolin-2-one], the solubility thermodynamic in series [1] came to 4 µg/mL (≈ 9.4 µM). Further, the IC50 in series [2] came out at 20.4 nM; in series [3], 21.7 nM.
The matching figures for `Cc1ccc(-n2c(=O)n(C)c3cnc4ccc(-c5cnc(N(C)C)nc5)cc4c32)c(C)n1` [Example 14.3, 8-(2-Dimethylamino-pyrimidin-5-yl)-1-(2,6-dimethyl-pyridin-3-yl)-3-methyl-1,3-dihydro-imidazo[4,5-c]quinolin-2-one]: 7 µg/mL (≈ 16.5 µM), 39 nM and 40.3 nM.
Taken in the same sequence, the figures for `CNc1ncc(-c2ccc3ncc4c(c3c2)n(-c2ccc(C)nc2C)c(=O)n4C)cn1` [Example 14.4, 1-(2,6-Dimethyl-pyridin-3-yl)-3-methyl-8-(2-methylamino-pyrimidin-5-yl)-1,3-dihydro-imidazo[4,5-c]quinolin-2-one] were 8 µg/mL (≈ 19.4 µM), 16.2 nM and 24.2 nM.
The matching figures for `CCNc1cc(-c2ccc3ncc4c(c3c2)n(-c2ccc(C)nc2C)c(=O)n4C)cnc1C` [Example 14.6, 1-(2,6-Dimethyl-pyridin-3-yl)-8-(5-ethylamino-6-methyl-pyridin-3-yl)-3-methyl-1,3-dihydro-imidazo[4,5-c]quinolin-2-one]: 175 µg/mL (≈ 399 µM), 5.2 nM and 8.1 nM.
Turning to `Cc1ccc(-n2c(=O)n(C)c3cnc4ccc(-c5cncc(NC(C)C)c5)cc4c32)c(C)n1` [Example 14.8, 1-(2,6-Dimethyl-pyridin-3-yl)-8-(5-isopropylamino-pyridin-3-yl)-3-methyl-1,3-dihydro-imidazo[4,5-c]quinolin-2-one], the solubility thermodynamic in series [1] is 12 µg/mL (≈ 27.4 µM). The IC50 in series [2] was determined as 9 nM; in series [3], 61.4 nM.
With `CNc1ncc(-c2ccc3ncc4c(c3c2)n(-c2ccc(N(C)CCOC)nc2C)c(=O)n4C)cn1` [Example 15.2, 1-{6-[(2-Methoxy-ethyl)-methyl-amino]-2-methyl-pyridin-3-yl}-3-methyl-8-(2-methylamino-pyrimidin-5-yl)-1,3-dihydro-imidazo[4,5-c]quinolin-2-one], the solubility thermodynamic in series [1] stood at 81 µg/mL (≈ 167 µM). Moreover, the IC50 was found to be 5 nM in series [2] and 21.4 nM in series [3].
